# Read-outs that look alike come from different tables or passages of the source.
# How the values were obtained:
# human CD40/CD154 = molecular target: T1, human CD40/CD154 (Homo sapiens, UniProt P29965); experiment: Human CD40/CD154 binding inhibition assay (cell-free, plate-based); details: for Human CD40/CD154 IC50 / IC50: cell-free binding; for Human CD40/CD154 log IC50: log of IC50, cell-free binding
# T1 construct: CD154 (soluble human, FLAG-tagged, recombinant from Alexis Biochemicals; MW=18 kDa); purchased Alexis Biochemicals
# T1 sequence (P29965 113-261 limits assumed): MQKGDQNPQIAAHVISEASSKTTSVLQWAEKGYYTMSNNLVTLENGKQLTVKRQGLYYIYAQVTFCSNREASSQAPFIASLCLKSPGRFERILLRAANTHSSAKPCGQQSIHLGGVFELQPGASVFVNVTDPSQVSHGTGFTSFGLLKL
# Method: A 96-well plate-based cell-free in vitro binding inhibition assay, which is a modification of an assay described in U.S. Pat. No. 7,173,046, incorporated by reference in its entirety, has been developed and used for activity screening. Briefly, CD40 is coated at a preselected concentration, and binding of (FLAG-tagged) CD154 is measured by reacting with secondary antibody and using TMB liquid substrate system as a substrate for horseradish peroxidase for reading at 450 nm. The detailed procedure is as follows: Microtiter plates (Nunc F MaxiSorp) were coated with […] of CD40: Fc (human:Fc human, recombinant from Alexis Biochemicals; MW=54 kDa) diluted in PBS pH 7.2 at a preselected concentration of 0.3125 μg/mL. Plates were covered with plate sealer and stored overnight at 4° C. The liquid was removed from the plates and blotted dry. Plates were blocked by washing once with approx. 300 μL/well of Blocking Solution (PBS pH 7.2, 0.05% Tween-20, 1% BSA) and incubated with the same solution for 1 hour at room temperature (RT) or at 4° C. overnight. Coated plates were washed three times with Washing Solution (PBS pH 7.4, 0.05% Tween-20) and blotted dry. A preselected dilution of CD154 (soluble human, FLAG-tagged, recombinant from Alexis Biochemicals; MW=18 kDa) of 0.0087500875 μg/mL range was prepared in 100 mM HEPES, 0.005% BSA pH 7.2. Binding was carried out by adding 100 μL of this CD154 dilution/well and incubating at RT in the presence of test compounds (or blank as negative control). After incubation, the plates were washed with Washing Solution and blotted dry. Bound CD154 was detected with 200 μL/well of secondary antibody mAb ANTI-FLAG M2—Peroxidase Conjugate (anti-FLAG M2-peroxidase HRP conjugate; Sigma-Aldrich) diluted 1:40,000 in Washing Solution. After incubation, the plates were washed and blotted dry. 200 μL/well of the HR-Peroxidase substrate TMB (3,3′,5,5′-tetramethylbenzidine; Sigma-Aldrich) were added, and the plates were incubated for approximately 30 minutes in the dark. The reaction was stopped with 0.5 M H2SO4 and read at 450 nm. All conditions were tested in at least three independent experiments in duplicate or triplicate per plates. Data were normalized and fitted with standard log inhibitor vs. response models using GraphPad Prism 5 to establish median inhibitory ICso values.
# A representative result using the monoclonal anti-human CD154 antibody (R&D Systems, monoclonal anti-human CD40 ligand/TNFSF5 antibody, MAB617; MW≈150 kDa used) as positive control is shown in FIG. 1.
# Binding inhibition assays with this system provided consistent and well-reproducible results, as FIG. 1 (bottom), focusing on the concentration range of their activities, illustrates. […] The effect of DMSO, which was used as the diluting solvent for the non-water-soluble compounds and is a standard solvent in HTS assays, on the integrity of the assay has been examined. DMSO concentrations above 10% interfere with the binding assay, but concentrations below 3% have no effect. […] Because 5 or 10 mM stock solutions were used, all IC50 values below 250 μM can be considered as unaffected by DMSO.
# human TNF-R1/TNFα [1] = molecular target: human TNF-R1/TNFα (Homo sapiens, UniProt P01375+P19438); experiment: Specificity test: human TNF-R1/TNFα binding inhibition assay; details: for IC50: cell-free binding, read-out: Human TNFR1/TNFα IC50; for Human TNFR1/TNFα log IC50: log of IC50, cell-free binding
# Sequence of human TNF-R1/TNFα (Homo sapiens, UniProt P01375+P19438) (P01375 77-233 limits assumed): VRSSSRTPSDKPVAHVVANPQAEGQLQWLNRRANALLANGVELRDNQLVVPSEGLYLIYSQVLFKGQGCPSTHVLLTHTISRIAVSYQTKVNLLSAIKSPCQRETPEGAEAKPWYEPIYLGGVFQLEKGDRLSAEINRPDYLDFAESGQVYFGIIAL
# Sequence of human TNF-R1/TNFα (Homo sapiens, UniProt P01375+P19438) (P19438 30-211 limits assumed): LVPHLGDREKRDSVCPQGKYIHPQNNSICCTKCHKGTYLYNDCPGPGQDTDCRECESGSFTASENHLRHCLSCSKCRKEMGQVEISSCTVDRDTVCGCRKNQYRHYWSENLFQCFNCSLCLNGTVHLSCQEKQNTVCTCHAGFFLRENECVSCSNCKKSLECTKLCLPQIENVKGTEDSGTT
# From the text: (§1) A main concern for the therapeutic applicability of these compounds and of small molecule PPI inhibitors in general is related to their ability to achieve some acceptable degree of selectivity/specificity for the PPI of interest. To identify compounds that show acceptable specificity for the CD40/CD154 system, their ability to inhibit the TNF-R1/TNF-α PPI was investigated since this is particularly relevant as CD154 is part of the TNF superfamily. The experimental setup used was very similar to the one described in Example 1, but using plate-coated TNF-R1 and TNF-α as ligand (with a corresponding anti-TNF-α mAb as positive control). The concentration of TNF-R1 and TNF-α used were 0.6 μg/mL and 0.02 μg/mL, respectively.
# [2] = molecular target: T2, mouse CD40/CD154 (mCD40:mCD154) (Mus musculus, UniProt P27548); experiment: Murine CD40/CD154 binding inhibition assay
# T2 construct: (FLAG-tagged) mCD154 (recombinant mouse CD40L, soluble, Alexis Biochemicals); purchased R&D Systems (mCD40/Fc); Alexis Biochemicals (mCD154)
# T2 sequence (P27548 112-260 limits assumed): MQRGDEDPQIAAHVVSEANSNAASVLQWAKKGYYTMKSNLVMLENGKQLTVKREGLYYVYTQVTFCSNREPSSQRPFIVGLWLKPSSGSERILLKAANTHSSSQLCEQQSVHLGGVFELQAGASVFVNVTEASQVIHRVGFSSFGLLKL
# Method: Compounds of interest were also tested in a murine (mouse) model similar to the human one with murine CD40 and CD154 replacing the corresponding human proteins. This serves as additional confirmation of the in vitro inhibitory potential of these compounds, and it was considered important because mouse models are likely to be used as the first in vivo tests. […] The experimental setup used was similar to the one described above, but using mCD40 (recombinant mouse CD40/TNFRSF5/Fc Chimera, soluble, R&D Systems) and (FLAG-tagged) mCD154 (recombinant mouse CD40L, soluble, Alexis Biochemicals). This time, however, a higher concentration of CD154 ligand had to be employed to obtain adequate signals, and after a number of calibration tests, mCD40 coating at 0.3125 μg/mL with mCD154 (mCD40L) at 1.1212 μg/mL range was selected to be used to screen the inhibiting activity of various compounds.
# The experiments confirmed that the murine anti-CD154 monoclonal antibody (Taconic, MR1) was active in this system at the expected concentration (˜1 nM range), the human antibody was not, and vice versa, the human mAb was active in the human system, but not in the mouse system. The mouse system provided a similar range of activity with some (up to approximately five-fold) changes in activities compared to that seen in the human system (FIG. 2) (Table 1).
# human TNF-R1/TNFα [3] = experiment: Specificity test: human TNF-R1/TNFα binding inhibition assay
# From the text: as §1
# CD40 = molecular target: T3, CD40 (Homo sapiens, UniProt P25942); experiment: Identification of binding partner: binding to CD40 (pre-incubation, wash-out); details: compound incubated 1 h with CD40, washed, then CD154 added
# T3 construct: purchased Alexis Biochemicals
# T3 sequence (P25942 21-193 limits assumed): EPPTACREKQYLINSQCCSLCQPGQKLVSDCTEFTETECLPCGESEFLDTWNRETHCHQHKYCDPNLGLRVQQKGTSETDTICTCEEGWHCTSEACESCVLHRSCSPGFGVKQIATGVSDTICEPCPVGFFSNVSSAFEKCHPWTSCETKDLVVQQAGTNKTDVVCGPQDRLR
# From the text: It is also of interest to identify whether the compounds bind to the receptor CD40 or its ligand CD154 (CD40L). The main goal is to block the CD40/CD154 costimulatory interaction to achieve altered immune response and long-term tolerance; however, it seems more desirable to achieve this by targeting CD154, which is expressed mainly on activated T cells, since this way a more specific immune suppression could be achieved then by targeting CD40. To evaluate the binding partner of the test compounds, CD40 or CD154 were incubated for one hour with increasing concentrations of the test compounds, and after a wash, their ability to still bind their corresponding protein binding partner (CD154 or CD40, respectively) was assessed using a setup similar to that described before (Example 1).
# To test if compounds bind specifically to CD40, the procedure of Example 1 was followed with a modification. After blocking the plates with blocking solution and washing, 100 μL of different dilutions of the compounds were added to the wells and incubated at room temperature (RT) for 1 h to allow binding with CD40 in the absence of its CD154 ligand. The plates were then washed three times with washing solution. CD154 was then added and the amount bound was assessed as before.
# [4] = read-out: Human CD40/CD154 IC50
# [5] = cell-free binding, read-out: Mouse CD40/CD154 IC50
Compound,Human CD40/CD154 IC50 (human CD40/CD154),IC50 (human CD40/CD154; [4]),Human CD40/CD154 log IC50 (human CD40/CD154),IC50 (human TNF-R1/TNFα [1]),Human TNFR1/TNFα log IC50 (human TNF-R1/TNFα [1]),"IC50 [2, 5]","Mouse CD40/CD154 log IC50 ([2]; log of IC50, cell-free binding)",Specificity (human TNF-R1/TNFα [3]),"Inhibitory activity for all interactions tested (human TNF-R1/TNFα [3]; all interactions tested (CD40/CD154, TNF-R1/TNF-α))",Binding to CD40 (CD40),IC50 (human CD40/CD154; read-out: Human CD40/CD154 IC50 (ug/mL) (converted)),"IC50 ([2]; log of IC50, cell-free binding, read-out: Mouse CD40/CD154 log IC50 (converted))"
"Nc1ccc2cc(S(=O)(=O)[O-])cc(O)c2c1N=Nc1ccc(NC(=O)Nc2ccc(N=Nc3c(N)ccc4cc(S(=O)(=O)[O-])cc(O)c34)c(S(=O)(=O)[O-])c2)cc1S(=O)(=O)[O-].[Na+].[Na+].[Na+].[Na+] [Direct red 75 (chlorazol fast pink), direct red 75]",4.9 µg/mL,4.8 µM,−5.32,322 µM,−3.49,7.4 µM,−5.13,–,–,–,–,–
"O=C(Nc1ccc2c(O)c(N=Nc3ccc(N=Nc4ccc(S(=O)(=O)[O-])cc4)cc3S(=O)(=O)[O-])c(S(=O)(=O)[O-])cc2c1)Nc1ccc2c(O)c(N=Nc3ccc(N=Nc4ccc(S(=O)(=O)[O-])cc4)cc3S(=O)(=O)[O-])c(S(=O)(=O)[O-])cc2c1.[Na+].[Na+].[Na+].[Na+].[Na+].[Na+] [Direct red 80, direct red 80]",1.9 µg/mL,1.8 µM,−5.73,1430 µM,−2.85,5.9 µM,−5.23,–,–,–,–,–
"O=C(Nc1ccc2c(O)c(N=Nc3ccc(N=Nc4ccc(S(=O)(=O)[O-])cc4)cc3)c(S(=O)(=O)[O-])cc2c1)c1ccccc1.[Na+].[Na+] [Direct red 81, direct red 81]",6.9 µg/mL,13.6 µM,−4.87,> 1000 µM,>−3.0,33.8 µM,−4.47,–,–,–,–,–
"O.O=C([O-])c1ccccc1-c1c2cc(I)c(=O)c(I)c-2oc2c(I)c([O-])c(I)cc12.[Na+].[Na+] [Erythrosin B (FD&C red 3), Erythrosin B, reference compound]",2.0 µg/mL,1.9 µM,−5.72,9 µM,−5.04,5.9 µM,−5.23,nonspecific promiscuous inhibitor,~10 µM,ubiquitous binder,–,–
O=C(Nc1ccc(C(=O)Nc2ccc(C(=O)Nc3ccc(S(=O)(=O)O)c4cc(S(=O)(=O)O)cc(S(=O)(=O)O)c34)cc2)cc1)Nc1ccc(C(=O)Nc2ccc(C(=O)Nc3ccc(S(=O)(=O)O)c4cc(S(=O)(=O)O)cc(S(=O)(=O)O)c34)cc2)cc1 [NF279],–,4.7 µM,–,438 µM,–,2.3 µM,–,–,–,–,5.2 µM,2.24 µM
direct fast red B,5.7 µg/mL,14 µM,−4.86,2160 µM,−2.67,16.7 µM,−4.78,–,–,–,–,–
direct red 13,3.5 µg/mL,5.5 µM,−5.26,214 µM,−3.67,12.7 µM,−4.90,–,–,–,–,–

# From US20110065675A1, “AZO DYE RELATED SMALL MOLECULE MODULATORS OF PROTEIN-PROTEIN INTERACTIONS” (University of Miami, priority 2008, published 2011)
